Consider ten molecules from patent US8697837B2, “Substrate for Rpn 11 enzymatic activity” (Onyx Therapeutics, Inc., priority 2005, dated 2014).

Where no end group is shown, it is not given here. Ub4 = N-terminal tetraubiquitin moiety

The target of assay [1] is T1, Rpn11 (26S proteasome) (Homo sapiens, UniProt O00487).
T1 construct: To date, a recombinant form of Rpn11 has not been generated
In words: High throughput fluorescence polarization assay of Ub4-peptide(29)-fluorescein proteolysis by 26S proteasome. The format is biochemical. Conditions: FIG. 5A/5B; 100 nM substrate, 10 nM 26S proteasome, 28 °C, various inhibitor concentrations. How it is done:
Various concentrations (as indicated) of Ub4-peptide(29) coupled to Fluorescein-5-maleimide was incubated with 10 nM 26S proteasome in 50 mM Tris pH 8.0; 10 mM MgCl2; 1 mM DTT; 1 mM ATP at 28° C., and the liberation of peptide(29)-fluorescein was measured by fluorescence polarization (excitation at 485 nm; emission at 510 nm).
FIG. 5A illustrates a high throughput (HTP) FP assay that detects O-phenanthroline inhibition of Rpn11 activity. […] 100 nM Ub4-peptide coupled to fluorescein-5-maleimide was incubated with 10 nM 26S proteasome in 50 mM Tris pH 8.0; 10 mM MgCl2; 1 mM DTT; 1 mM ATP at 28° C. and the liberation of peptide was measured by fluorescence polarization (excitation at 485 nm; emission at 510 nm) in the presence of various concentrations of o-phenanthroline (as indicated).
FIG. 5B illustrates that Rpn11 enzymatic activity is unaffected by the presence of a 20S proteasome inhibitor in the HTP FP assay using a peptide substrate of the application. […] 100 nM Ub4-peptide coupled to fluorescein-5-maleimide was incubated with 10 nM 26S proteasome in 50 mM Tris pH 8.0; 10 mM MgCl2; 1 mM DTT; 1 mM ATP at 28° C. and the liberation of peptide was measured by fluorescence polarization (excitation at 485 nm; emission at 510 nm) in the presence of various concentrations of 20S proteasome inhibitor (as indicated).
On the technique in general: In fluorescence polarisation assays a small probe gives low polarisation when free and higher when bound to something large.

In assay [2] the target is T1, Rpn11 (26S proteasome). In words: SDS-PAGE assay of Ub4-peptide substrate proteolysis by 26S proteasome. The note with it: for inhibition of proteolysis of the substrate Ub4-peptide(29) and Ub4-peptide-C14(29) by the 26S proteasome: FIG. 1, 60 nM 26S proteasome, 2 h 37 °C, 5 mM ATPγS, 1 mM OPA, 5 μM Ub-aldehyde, SDS-PAGE. In kind it is biochemical. How it is done: Each peptide substrate further comprises an N-terminal ubiquitin moiety that has 4 Ub repeats (Ub4). […] 2 μg of Ub4-peptide(29) or Ub4-peptide-C14(29) were incubated with 60 nM 26S proteasome in buffer B [50 mM Tris pH 8.0; 10 mM MgCl2; 1 mM DTT; 1 mM ATP] and where indicated 5 mM ATPγS, 1 mM O-phenanthroline (OPA) and 5 μM ubiquitin aldehyde (Ub-aldehyde) in a volume of 20 μl for 2 hours at 37° C. Reactions were stopped by adding 7.5 μl loading dye and boiled at 100° C. for 5 minutes. Reactions were then loaded on an SDS-PAGE gel, reaction products were separated by electrophoresis and bands were visualized with brilliant blue.
Each peptide substrate further comprises an N-terminal ubiquitin moiety that has 4 Ub repeats (Ub4).

For a further assay, the target named is Rpn11 (Saccharomyces cerevisiae, UniProt P43588). Conditions: purified 26S proteasome complex; cited from earlier work.
Sequence of Rpn11 (P43588 whole entry): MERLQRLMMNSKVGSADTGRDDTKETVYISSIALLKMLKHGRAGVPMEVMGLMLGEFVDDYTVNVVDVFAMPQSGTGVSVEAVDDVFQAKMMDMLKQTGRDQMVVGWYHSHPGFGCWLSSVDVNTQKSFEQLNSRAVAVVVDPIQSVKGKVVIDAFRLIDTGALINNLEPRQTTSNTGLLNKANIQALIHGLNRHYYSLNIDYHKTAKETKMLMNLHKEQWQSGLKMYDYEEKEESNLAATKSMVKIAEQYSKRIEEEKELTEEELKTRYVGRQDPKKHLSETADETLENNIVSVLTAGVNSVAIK
The next assay deals with 19S proteasome. In words: Example 2 screen: liberation of pep-C14(29)-Oregon Green from Ub4-pep-C14(29)-Oregon Green (fluorescence polarization). In kind it is biochemical, human. Conditions: method of Example 2. How it is done:
(§1) 4) 26S proteasome purified from humans and purchased from BioMol;
(§2) 5 μl of compound [30 μM compound in Buffer A+1% DMSO], 5 μl of substrate [30 nM Ub4-pep-C14(29)-Oregon Green and 15 μM LLVY-AMC in Buffer A] and 5 μl enzyme [1.5 nM 26S proteasomes] were mixed in a 384 well plates and incubated at 28° C. for 75 minutes. Reactions were stopped with the addition of […] 20S inhibitor (PR-171) and 4 mM EDTA. Processing of the 20S substrate LLVY-AMC to liberate AMC was determined by measuring the AMC fluorescence [excitation at 340 nm; emission at 465 nm]. Processing of the 19S substrate Ub4-pep-C14(29)-Oregon Green to liberate pep-C14(29)-Oregon Green was determined by measuring the fluorescence polarization of Oregon Green [excitation at 485 nm; emission at 535 nm].
Modulators of the 19S proteasome activity affect liberation of pep-C14(29)-Oregon Green from Ub4-pep-C14(29)-Oregon Green (first ubiquitinated substrate).

For assay [3], the target named is T2, chymotryptic-like activity of the 20S proteasome (Homo sapiens, UniProt P20618+P28074).
T2 construct: 26S proteasome purified from humans and purchased from BioMol; purchased BioMol
In words: Example 2 screen: liberation of AMC from LLVY-AMC. The format is biochemical. The note with it: substrate LLVY-AMC; method of Example 2. How it is done: as §1, §2
Modulators of the 20S proteasome activity affect liberation of AMC from LLVY-AMC (second non-ubiquitinated substrate) and affect the chymotryptic-like activity of the 20S proteasome.

The target of assay [4] is ubiquitin or polyubiquitin chains (Homo sapiens, UniProt P0CG48). Conditions: cited from earlier work.
In another assay the test system is Ub4-pep-C14(29). In words: Intrinsic fluorescence of ubistatin A on incubation with Ub4-pep-C14(29). In kind it is binding. The note with it: 2.5 μM ubistatin A with 2.5 μM Ub4-pep-C14(29); excitation 350 nm, emission 450 nm. From the text: A test agent that binds ubiquitin can affect the binding of ubistatin A (C92) to Ub4-pep-C14(29). This can be determined by measuring the intrinsic fluorescence of ubistatin A (C92) [excitation at 350 nm; emission at 450 nm] with Ub4-pep-C14(29) in the presence or absence of a test agent, which is a competition assay between ubistatin A and the test agent for binding to the ubiquitin.

Where [5] appears, read: FIG. 2, 60 nM 26S proteasome from source A.
The mark [6] stands for this setting: FIG. 2, 60 nM 26S proteasome from source B.

Take `c1cnc2c(c1)ccc1cccnc12` [o-phenanthroline, 1,10-phenanthroline]: the “effect on kinetics of Ub4-peptide(29)-fluorescein proteolysis by the 26S proteasome” value at Rpn11 (26S proteasome) [1] is “affects”. Besides, on Rpn11 (26S proteasome) [2], the “inhibition of proteolysis of the substrate Ub4-peptide(29) and Ub4-peptide-C14(29) by the 26S proteasome” value (shortened to “inhibition … by the 26S proteasome”) was “inhibited”. In addition, the “inhibition of proteolysis of the substrate Ub4-peptide-C14(14)” value against Rpn11 (26S proteasome) [2] (setting [5]) is listed as “inhibited”; against Rpn11 (26S proteasome) [2] (setting [6]) it was “not”. Consider ubiquitin aldehyde, for which, at Rpn11, the “sensitivity of the deubiquitinating activity associated with Rpn11” value is recorded as “insensitivity”. Moreover, the “inhibition … by the 26S proteasome” value at Rpn11 (26S proteasome) [2] is on record as “not”. For `Nc1ncnc2c1ncn2[C@@H]1O[C@H](COP(=O)(O)OP(=O)(O)OP(O)(O)=S)[C@@H](O)[C@H]1O` [ATPγS], on Rpn11 (26S proteasome) [2], the “inhibition … by the 26S proteasome” value was “inhibited”. Further, the “inhibition of proteolysis of the substrate Ub4-peptide-C14(14)” value at Rpn11 (26S proteasome) [2] (setting [5]) is reported as “inhibited”; at Rpn11 (26S proteasome) [2] (setting [6]), “not”. Regarding `O=C(c1ccc(CSc2ccc(-c3ccc(-c4ccccc4)cc3)nn2)o1)N1CCCC1` [Compound 4], in the assay on 19S proteasome, the “processing of the substrate Ub4-pep-C14(29)-Oregon Green by the 19S proteasome” value is “prevents”. In the case of `COc1cccc(OC)c1C(=O)N1CCC(c2nc(-c3ccc(C)cc3)no2)CC1` [Compound 2], in assay [3], the “effect on the chymotryptic-like activity of the 20S proteasome” value (“effect on the chymotryptic-like activity” below) is recorded as “affect”. With `CC(C)c1cc(OC(=O)c2cc(C(F)(F)F)cc(C(F)(F)F)c2)n(-c2ccc([N+](=O)[O-])cc2)n1` [Compound 3], in assay [3], the “effect on the chymotryptic-like activity” value was “affect”. Turning to “Ub4-peptide-C14(14): peptide of SEQ ID NO:15 with S14 changed to C14 and an N-terminal Ub4 moiety; Rpn11 substrate (Ub4-MQIFVKTLRANSSC)”, in the assay with Rpn11 (26S proteasome) [2] (FIG. 2, SEQ ID NO:15, N-terminal Ub4), the “effect of changing S14 to C14 on substrate's ability to be recognized and cleaved by Rpn11” value is “does not alter”. On to `O=C(Nc1ccc(/C=C/c2ccc(NC(=O)c3cc(S(=O)(=O)O)c4cccnc4c3O)cc2S(=O)(=O)O)c(S(=O)(=O)O)c1)c1cc(S(=O)(=O)O)c2cccnc2c1O` [Ubistatin A], for which, in assay [4], the “intrinsic fluorescence detected from Compound 92 on binding to a protein substrate” value was “increases”. Moreover, the “intrinsic fluorescence of ubistatin A (C92)” value in the assay on Ub4-pep-C14(29) is recorded as “increases several fold”. As for `COc1cccc(OC)c1C(=O)N1CCC(c2nc(-c3ccc(Br)cc3)no2)CC1` [Compound 1], in assay [3], the “effect on the chymotryptic-like activity” value is “affect”.

In the case of ubiquitin vinylsulphone, the “sensitivity of the deubiquitinating activity associated with Rpn11” value at Rpn11 is “insensitivity”.
